Residues, ends and D or L forms follow the SMILES beside them. *: point of attachment. AMC = Cc1cc(=O)oc2cc(N*)ccc12; Cbz = O=C(OCc1ccccc1)*
Molecular target: recombinant HvPAP14 (HvPAP14:MBP) (Hordeum vulgare, UniProt B4ESF2)
Assay: fluorogenic cleavage, ratio of […] nm / […] nm emission
Assay type: biochemical
Settings: 20 uM substrate, pH 3.5-9; enzyme activated at pH 4.5

Chain of recombinant HvPAP14 (HvPAP14:MBP) (B4ESF2 30-367): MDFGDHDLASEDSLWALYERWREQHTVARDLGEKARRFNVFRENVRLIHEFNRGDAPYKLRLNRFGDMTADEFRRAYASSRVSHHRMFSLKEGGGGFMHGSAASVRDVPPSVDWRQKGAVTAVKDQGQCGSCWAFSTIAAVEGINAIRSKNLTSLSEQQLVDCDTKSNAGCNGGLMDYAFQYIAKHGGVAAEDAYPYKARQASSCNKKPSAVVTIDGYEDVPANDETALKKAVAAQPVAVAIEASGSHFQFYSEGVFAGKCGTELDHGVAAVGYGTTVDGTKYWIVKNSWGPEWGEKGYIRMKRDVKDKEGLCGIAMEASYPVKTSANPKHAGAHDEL

## Cc1cc(=O)oc2cc(NC(=O)[C@H](CCCNC(=N)N)NC(=O)[C@H](Cc3ccccc3)NC(=O)OCc3ccccc3)ccc12 [Z-FR-AMC] (Cbz-Phe-Arg-{AMC})
  fluorogenic cleavage, ratio of 440 nm / 393 nm emission: activity of the recombinant protein was therefore tested at different pH values using the fluorescent

— article PMC6859807 (Journal of Experimental Botany, 2019)
